Legend:
[1] = Mean Cmax of diclofenac potassium following oral dosing of Cataflam 50 mf tablet in healthy human; assay type: ADME, organism-based; parameters: dietary status Fed, dose 50 mg, dosed compound id 2.46815e+06, dosed compound name Diclofenac potassium, gender Mixed, regimen Single, route oral, study doses 50 mg; conditions: both, plasma, 50 mg
[2] = Mean median Tmax value of diclofenac potassium following oral dosing of Cataflam 50 mf tablet in healthy human; assay type: ADME, organism-based; parameters: dietary status Fed, dose 50 mg, dosed compound id 2.46815e+06, dosed compound name Diclofenac potassium, gender Mixed, regimen Single, route oral, study doses 50 mg; conditions: both, plasma, 50 mg, read-out: Median Tmax
[3] = Mean minimum Tmax value of diclofenac potassium following oral dosing of Cataflam 50 mf tablet in healthy human; assay type: ADME, organism-based; parameters: dietary status Fed, dose 50 mg, dosed compound id 2.46815e+06, dosed compound name Diclofenac potassium, gender Mixed, regimen Single, route oral, study doses 50 mg; conditions: both, plasma, 50 mg, read-out: Minimum Tmax
[4] = Mean maximum Tmax value of diclofenac potassium following oral dosing of Cataflam 50 mf tablet in healthy human; assay type: ADME, organism-based; parameters: dietary status Fed, dose 50 mg, dosed compound id 2.46815e+06, dosed compound name Diclofenac potassium, gender Mixed, regimen Single, route oral, study doses 50 mg; conditions: both, plasma, 50 mg, read-out: Maximum Tmax
[5] = Mean Kel of diclofenac potassium following oral dosing of Cataflam 50 mf tablet in healthy human; assay type: ADME, organism-based; parameters: dietary status Fed, dose 50 mg, dosed compound id 2.46815e+06, dosed compound name Diclofenac potassium, gender Mixed, regimen Single, route oral, study doses 50 mg; conditions: both, plasma, 50 mg
[6] = Mean terminal elimination half-life of diclofenac potassium following oral dosing of Cataflam 50 mf tablet in healthy human; conditions: both, plasma, 50 mg
[7] = Mean Cmax value of diclofenac following single oral dosing of 18 mg Zorvolex capsule in healthy human; assay type: ADME, organism-based; parameters: dietary status Fasting, dose 18 mg, dosed compound id 2.46815e+06, dosed compound name Diclofenac, gender Mixed, regimen Single, route oral; conditions: both, plasma
[8] = Geometric mean for Cmax of diclofenac following single oral dosing of 18 mg Zorvolex capsule in healthy human; assay type: ADME, organism-based; parameters: dietary status Fasting, dose 18 mg, dosed compound id 2.46815e+06, dosed compound name Diclofenac, gender Mixed, regimen Single, route oral; conditions: both, plasma
[9] = Median tmax of diclofenac following single oral dosing of 18 mg Zorvolex capsule in healthy human; assay type: ADME, organism-based; parameters: dietary status Fasting, dose 18 mg, dosed compound id 2.46815e+06, dosed compound name Diclofenac, gender Mixed, regimen Single, route oral; conditions: both, plasma, read-out: Median Tmax
[10] = Minimum tmax of diclofenac following single oral dosing of 18 mg Zorvolex capsule in healthy human; assay type: ADME, organism-based, Plasma; parameters: dietary status Fasting, dose 18 mg, dosed compound id 2.46815e+06, dosed compound name Diclofenac, gender Mixed, regimen Single, route oral; conditions: in vivo
[11] = Maximum tmax of diclofenac following single oral dosing of 18 mg Zorvolex capsule in healthy human; assay type: ADME, organism-based, Plasma; parameters: dietary status Fasting, dose 18 mg, dosed compound id 2.46815e+06, dosed compound name Diclofenac, gender Mixed, regimen Single, route oral; conditions: in vivo
[12] = Mean apparent terminal elimination rate constant value of diclofenac following single oral dosing of 18 mg Zorvolex capsule in healthy human; assay type: ADME, organism-based, Plasma; parameters: dietary status Fasting, dose 18 mg, dosed compound id 2.46815e+06, dosed compound name Diclofenac, gender Mixed, regimen Single, route oral; conditions: in vivo
[13] = Geometric mean for apparent terminal elimination rate constant of diclofenac following single oral dosing of 18 mg Zorvolex capsule in healthy human; assay type: ADME, organism-based, Plasma; parameters: dietary status Fasting, dose 18 mg, dosed compound id 2.46815e+06, dosed compound name Diclofenac, gender Mixed, regimen Single, route oral; conditions: in vivo
[14] = Mean AUC (0-t) value of diclofenac following single oral dosing of 18 mg Zorvolex capsule in healthy human; assay type: ADME, organism-based; parameters: dietary status Fasting, dose 18 mg, dosed compound id 2.46815e+06, dosed compound name Diclofenac, gender Mixed, regimen Single, route oral; conditions: both, plasma
[15] = Geometric mean for AUC (0-t) of diclofenac following single oral dosing of 18 mg Zorvolex capsule in healthy human; assay type: ADME, organism-based; parameters: dietary status Fasting, dose 18 mg, dosed compound id 2.46815e+06, dosed compound name Diclofenac, gender Mixed, regimen Single, route oral; conditions: both, plasma
[16] = Mean AUC (0-infinity) value of diclofenac following single oral dosing of 18 mg Zorvolex capsule in healthy human; assay type: ADME, organism-based; parameters: time infinity, dietary status Fasting, dose 18 mg, dosed compound id 2.46815e+06, dosed compound name Diclofenac, gender Mixed, regimen Single, route oral; conditions: both, plasma, read-out: AUC (0-infinity)
[17] = Geometric mean for AUC (0-infinity) of diclofenac following single oral dosing of 18 mg Zorvolex capsule in healthy human; assay type: ADME, organism-based; parameters: time infinity, dietary status Fasting, dose 18 mg, dosed compound id 2.46815e+06, dosed compound name Diclofenac, gender Mixed, regimen Single, route oral; conditions: both, plasma, read-out: AUC (0-infinity)
[18] = Mean Cmax value of diclofenac following single oral dosing of 35 mg Zorvolex capsule in healthy human; assay type: ADME, organism-based; parameters: dietary status Fasting, dose 35 mg, dosed compound id 2.46815e+06, dosed compound name Diclofenac, gender Mixed, regimen Single, route oral; conditions: both, plasma
clinical [19] = conditions: both, human, plasma, po, 35 mg
clinical [20] = conditions: both, human, plasma, po, 35 mg; remark: listed apart in the source
clinical [21] = conditions: both, human, plasma, po, 50 mg
clinical [22] = conditions: both, human, plasma, po, 50 mg; remark: listed apart in the source
clinical [23] = conditions: both, human, plasma, po, 25 mg
Description: (§1) Mean terminal elimination half-life of diclofenac following single oral dosing of 25 mg diclofenac potassium softgel capsule in healthy human

clinical [24] = conditions: both, human, plasma, po, 25 mg; remark: listed apart in the source
Description: as §1

clinical [25] = conditions: both, human, plasma, po, 50 mg; remark: listed apart in the source
Description: (§2) Mean terminal elimination half-life of diclofenac following single oral dosing of 50 mg diclofenac potassium softgel capsule in healthy human

clinical [26] = conditions: both, human, plasma, po, 50 mg; remark: listed apart in the source
Description: as §2

clinical [27] = conditions: both, human, plasma, po, 50 mg; remark: listed apart in the source
clinical [28] = conditions: both, human, plasma, po, 25 mg; remark: listed apart in the source
clinical [29] = conditions: both, human, plasma, po, 50 mg; remark: listed apart in the source
clinical [30] = conditions: both, human, plasma, po, 50 mg; remark: listed apart in the source
clinical [31] = conditions: both, human, plasma, po, 50 mg; remark: listed apart in the source
clinical [32] = conditions: both, human, plasma, po, 18 mg

O=C(O)Cc1ccccc1Nc1c(Cl)cccc1Cl [DICLOFENAC]
Cmax [1]: 835 ng/mL | Tmax [2]: 1.25 h | Tmax [3]: 0.33 h | Tmax [4]: 8 h | k el [5]: 0.000136 s⁻¹ | half-life [6]: 1.56 h | Cmax [7]: 496 ng/mL | Cmax [8]: 454 ng/mL | Tmax [9]: 1 h | Minimum Tmax [10]: 0.5 h | Maximum Tmax [11]: 4.5 h | lambda-z [12]: 0.399 h⁻¹ | lambda-z [13]: 0.384 h⁻¹ | AUC(0-t) [14]: 490 ng·h/mL | AUC(0-t) [15]: 478 ng·h/mL | AUC(0-inf) [16]: 499 ng·h/mL | AUC(0-inf) [17]: 487 ng·h/mL | Cmax [18]: 869 ng/mL | half-life (clinical [19]): 2.1 h | half-life (clinical [20]): 2.24 h | half-life (clinical [21]): 2.27 h | half-life (clinical [22]): 2.27 h | half-life (clinical [23]): 1.04 h | half-life (clinical [24]): 1.11 h | half-life (clinical [25]): 1.1 h | half-life (clinical [26]): 1.07 h | half-life (clinical [27]): 1.84 h | half-life (clinical [28]): 1.35 h | half-life (clinical [29]): 1.45 h | half-life (clinical [30]): 1.35 h | half-life (clinical [31]): 2.15 h | half-life (clinical [32]): 1.87 h
